Laboratory results: paper PMC7265429, “Characterization of a new small-molecule inhibitor of HDAC6 in glioblastoma” (Cell Death & Disease, 2020)

Tested on: GNS166 cells
Test: Microarray whole-transcriptome gene expression analysis
Assay type: cell-based, human
Settings: DMSO vs SAHA, downregulated
Protocol: Whole-transcriptome analysis was performed from 300 ng of RNA using HuGene-2_0-st-v1 expression array (Affymetrix), which covers 48,226 transcripts. Raw data were first checked for quality purposes through the Affymetrix® Expression Console™ Software v1.4.1 and TAC software v4.0. Then, data were normalized using the Robust Multi-array Average (RMA) and analyzed by Limma tool. Probesets with FDR-corrected p-values smaller than 0.05 were selected. Functional enrichment on Gene Ontology (GO) biological processes was performed on a smaller subset of the differentially expressed genes (corrected p-value < 0.001) by means of Broad Institute GSEA. […] The data that support this study have been deposited in NCBI´s Gene Expression Omnibus and are accessible through GEO series accession number GSE143887.

SMILES: O=C(CCCCCCC(=O)Nc1ccccc1)NO [SAHA, Suberoylanilide hydroxamic acid]
- logFC GTF2IRD2 (transcript TC0700011518.hg.1): -2.067
- logFC GBAS (transcript TC0700013363.hg.1): -1.318
- logFC NDUFB2 (transcript TC0700013468.hg.1): -1.3
- logFC MSRA (transcript TC0800006692.hg.1): -1.45
- logFC CYC1 (transcript TC0800009239.hg.1): -1.06
- logFC PBK (transcript TC0800009970.hg.1): -1.706
- logFC ANK1 (transcript TC0800010252.hg.1): -2.257
- logFC NSMAF (transcript TC0800010553.hg.1): -1.838
- logFC CPA6 (transcript TC0800010708.hg.1): -2.501
- logFC HAS2 (transcript TC0800011646.hg.1): -1.946
- logFC FXN (transcript TC0900007494.hg.1): -0.9868
- logFC NEK6 (transcript TC0900008716.hg.1): -1.139
- logFC ARHGEF39 (transcript TC0900009948.hg.1): -1.156
- logFC KIAA0368 (transcript TC0900011200.hg.1): -1.9364
- logFC SUSD1 (transcript TC0900011220.hg.1): -2.309
- logFC PHF19 (transcript TC0900011388.hg.1): -2.061
- logFC CIZ1 (transcript TC0900011626.hg.1): -1.331
- logFC TOR1A (transcript TC0900011709.hg.1): -1.605
- logFC VAV2 (transcript TC0900011864.hg.1): -1.105
- logFC ANAPC16 (transcript TC1000007986.hg.1): -1.273
- logFC PLEKHS1 (transcript TC1000008955.hg.1): -2.168
- logFC SEPHS1 (transcript TC1000009844.hg.1): -1.411
- logFC EPC1 (transcript TC1000010256.hg.1): -1.207
- logFC PBLD (transcript TC1000010843.hg.1): -1.5
- logFC DNAJB12 (transcript TC1000010990.hg.1): -1.539
- logFC PRDX3 (transcript TC1000011993.hg.1): -0.8845
- logFC MKI67 (transcript TC1000012235.hg.1): -1.335
- logFC AS3MT (transcript TC1000012496.hg.1): -1.5939
- logFC PARVA (transcript TC1100006879.hg.1): -1.499
- logFC CCND1 (transcript TC1100008236.hg.1): -0.9478
- logFC TSKU (transcript TC1100008514.hg.1): -1.319
- logFC NTM (transcript TC1100009561.hg.1): -2.198
- logFC IFITM3 (transcript TC1100009657.hg.1): -1.487
- logFC FOSL1 (transcript TC1100011259.hg.1): -2.603
- logFC TRIM22 (transcript TC1100012957.hg.1): -3.047
- logFC CHEK1 (transcript TC1100013111.hg.1): -0.9424
- logFC CDCA5 (transcript TC1100013184.hg.1): -1.4587
- logFC CLCF1 (transcript TC1100013192.hg.1): -1.898
- logFC TSPAN9 (transcript TC1200006520.hg.1): -1.358
- logFC RAD51AP1 (transcript TC1200006561.hg.1): -1.95
- logFC C12orf57 (transcript TC1200006656.hg.1): -1.605
- logFC ESPL1 (transcript TC1200007707.hg.1): -1.687
- logFC IKZF4 (transcript TC1200007822.hg.1): -1.324
- logFC FOXM1 (transcript TC1200009621.hg.1): -2.01
- logFC CDCA3 (transcript TC1200009759.hg.1): -2.054
- logFC MFAP5 (transcript TC1200009834.hg.1): -1.349
- logFC TAS2R10 (transcript TC1200009919.hg.1): -2.012
- logFC MCRS1 (transcript TC1200010633.hg.1): -1.188
- logFC MMAB (transcript TC1200011873.hg.1): -1.164
- logFC WSB2 (transcript TC1200012105.hg.1): -1.343
- logFC CIT (transcript TC1200012143.hg.1): -1.292
- logFC TAPBPL (transcript TC1200012584.hg.1): -1.336
- logFC PRR4 (transcript TC1200012755.hg.1): -1.713
- logFC R3HDM2 (transcript TC1200012808.hg.1): -1.233
- logFC PHF11 (transcript TC1300007167.hg.1): -1.841
- logFC ITGBL1 (transcript TC1300007870.hg.1): -1.539
- logFC DIAPH3 (transcript TC1300009088.hg.1): -1.66
- logFC GAS6 (transcript TC1300009924.hg.1): -1.149
- logFC RHOJ (transcript TC1400007404.hg.1): -2.1714
- logFC BTBD6 (transcript TC1400008476.hg.1): -1.003
- logFC AJUBA (transcript TC1400010715.hg.1): -1.776
- logFC ARHGAP11B (transcript TC1500006785.hg.1): -1.512
- logFC CCNB2 (transcript TC1500007392.hg.1): -2.179
- logFC TPM1 (transcript TC1500007510.hg.1): -1.243
- logFC KIF23 (transcript TC1500007699.hg.1): -1.664
- logFC MAN2A2 (transcript TC1500008341.hg.1): -1.396
- logFC LCTL (transcript TC1500009830.hg.1): -1.502
- logFC PRC1 (transcript TC1500010463.hg.1): -1.211
- logFC ARHGAP11B (transcript TC1500010707.hg.1): -1.7076
- logFC C16orf62 (transcript TC1600007113.hg.1): -1.881
- logFC PLK1 (transcript TC1600007235.hg.1): -1.599
- logFC ARL2BP (transcript TC1600007992.hg.1): -1.083
- logFC SHCBP1 (transcript TC1600010168.hg.1): -1.56
- logFC XAF1 (transcript TC1700006709.hg.1): -1.919
- logFC MPDU1 (transcript TC1700006758.hg.1): -1.716
- logFC GOSR1 (transcript TC1700007454.hg.1): -1.325
- logFC CCL2 (transcript TC1700007557.hg.1): -1.8857
- logFC ABCC3 (transcript TC1700008263.hg.1): -2.846
- logFC BIRC5 (transcript TC1700009043.hg.1): -1.565
- logFC AURKB (transcript TC1700009679.hg.1): -1.67
- logFC CENPV (transcript TC1700009888.hg.1): -1.862
- logFC MED24 (transcript TC1700010599.hg.1): -1.405
- logFC TOP2A (transcript TC1700010618.hg.1): -1.269
- logFC CCDC43 (transcript TC1700010841.hg.1): -0.9856
- logFC ALYREF (transcript TC1700012078.hg.1): -1.381
- logFC SPAG5 (transcript TC1700012380.hg.1): -2.042
- logFC SERPINB8 (transcript TC1800009245.hg.1): -1.496
- logFC NFIC (transcript TC1900006628.hg.1): -1.238
- logFC SYDE1 (transcript TC1900007208.hg.1): -1.288
